# Assays:
# GPR81 [1] = molecular target: T1, GPR81 (Homo sapiens, UniProt Q9BXC0); assay: HTRF assay for direct cAMP measurement; assay type: cell-based; conditions: CHO-K1 cells stably transfected with GPR81, forskolin-stimulated cAMP
# T1 construct: expressed in transfected cells; host or cells: CHO-K1 (ATCC CCL-61), recombinant, stably transfected
# From the text: Compounds were screened for agonists of GPR81 (e.g., human GPR81) using an HTRF® assay for direct cAMP measurement (Gabriel et al, ASSAY and Drug Development Technologies, 1:291-303, 2003) and recombinant CHO-K1 cells stably transfected with GPR81. CHO-K1 cells were obtained from ATCC® (Manassas, Va.; Catalog #CCL-61). An agonist of GPR81 was detected in the HTRF® assay for direct cAMP measurement as a compound which decreased cAMP concentration. The HTRF® assay also was used to determine EC50 values for GPR81 agonists.
# The HTRF® assay kit was purchased from Cisbio-US, Inc. (Bedford, Mass.; Catalog #62AM4PEC). The HTRF® assay supported by the kit is a competitive immunoassay between endogenous cAMP produced by the CHO-K1 cells and tracer cAMP labeled with the dye d2. The tracer binding is visualized by a monoclonal anti-cAMP antibody labeled with Cryptate. The specific signal (i.e., fluorescence resonance energy transfer, FRET) is inversely proportional to the concentration of unlabeled cAMP in the standard or sample.
# The fluorescence ratio of the samples (test compound or compound buffer) was calculated and used to deduce respective cAMP concentrations by reference to the cAMP standard curve.
# The HTRF® assay was carried out using a two-step protocol essentially according to the kit manufacturer's instructions, in 20 μL total volume per well in 384-well plate format (ProxiPlates; PerkinElmer, Fremont, Calif.; catalog #6008280). To each of the experimental wells was transferred 1000 recombinant CHO-K1 cells in 5 μL phosphate buffered saline containing calcium chloride and magnesium chloride (“PBS+”; Invitrogen, Carlsbad, Calif.; catalog #14040) supplemented with IBMX (100 μM) (phosphodiesterase inhibitors; Sigma-Aldrich, St. Louis, Mo.; catalog #I-5879), followed by test compound in 5 μL compound buffer (PBS+ supplemented with 10 μM forskolin (Sigma-Aldrich, St. Louis, Mo.; catalog #F-6886)). The plate was then incubated at room temperature for 1 hour. To each well was then added 5 μl cAMP-d2 conjugate in lysis buffer and 5 μL Cryptate conjugate in lysis buffer according to the kit manufacturer's instructions. The plate was then further incubated at room temperature for 1 hour, after which the assay plate was read.
# HTRF® readout was accomplished using a PHERAstar (BMG LABTECH Inc., Durham, N.C.) or EnVision™ (PerkinElmer, Fremont Calif.) microplate reader.
# [2] = tested on: rat epididymal adipocytes; assay: Glycerol assay (rat adipocyte lipolysis); assay type: cell-based; conditions: rat epididymal adipocytes in vitro, FIG. 5
# Protocol: Free glycerol was determined using a free glycerol reagent, Reagent A (Sigma). Adipocyte media (10 μL) was removed and replated in a flat-bottom 96-well plate. Reagent A (100 μL) was then added to each well. After 10-15 minutes, abroad sorbance was read at OD540 on a Spectramax 340PC microplate reader (Molecular Devices). The amount of glycerol released was calculated based on regression analysis of known glycerol concentrations using a glycerol standard (Sigma).
# Epididymal fat pads were surgically removed from CO2-anesthetized male Sprague Dawley rats, weighing 300-500 g. The adipose tissue was minced and suspended in Krebroad s-Ringer bicarbonate HEPES buffer (containing […], […] (monobasic), […] MgSO4.7H2O, […] CaCl2, 1 mM NaHCO3, 3 mM HEPES, 200 nM adenosine, and 1% BSA) with 2.5 mg of collagenase (Sigma) per gram of tissue. The suspension was incubated in an orbital shaker at 37° C. for 40 minutes with constant agitation. Cells were then filtered through a 500 μm mesh filter. For each filter used, 10 mL of buffer was added to the cell suspension to aid with the filtration. Cells were spun at 1000 rpm for 1 minute. A glass Pasteur pipette was then used to remove all buffer remaining below the floating adipocyte layer. Approximately 30 mL of new buffer was then added to the adipocytes and they were incubated for 5 minutes at 37° C. […]
# Male C57/B16 mice = assay: NEFA assay, circulating free fatty acids in mice; assay type: in vivo, mouse; conditions: FIG. 7
# Protocol: (§1) The supplied standard was diluted with DI water to 1, 0.5, 0.25, 0.125, 0.0625, 0.03125. A water blank was also prepared. Serum samples and standards were dispensed (5 μl/well) to wells of a 96-well plate. Reagent A (100 μL) was added to each well and incubated for 10 minutes at 37° C. Reagent B (200 μL) was then added to each well and incubated for another 10 minutes at 37° C. After equilibration for 5 minutes at room temperature (about 25° C.), the abroad sorbance was measured on a plate reader at 550 nm.
# Male C57/B16 mice (8-10 weeks old; about 23 g) were food deprived (by removing food pellets from the cage) for 5 hours with ad libitum access to water. Animals were then dosed with vehicle (5% HPBCD) or drug via intraperitoneal (IP) injection at the desired concentration in a volume of 10 mL/kg. After 30 minutes, mice were euthanized via CO2 asphyxiation and about 300 μl of blood were immediately collected by cardiac puncture. The blood was transferred to an Eppendorf tube and capped on ice. The blood was then centrifuged on a table top centrifuge (4000 rpm at 4° C. for 10 minutes). Serum was collected in a new microfuge tube and re-centrifuged (4000 rpm at 4° C. for 10 minutes). Serum samples were dispensed (5 μl/well) to wells of a 96-well plate.
# Male Sprague Dawley rats = assay: NEFA assay, circulating free fatty acids in rats; assay type: in vivo, rat; conditions: after injection of 100 mpk, FIG. 6
# Protocol: as §1
# Male Sprague Dawley rats (10-12 weeks old) were obtained from Charles River Labroad s pre-cannulated with right jugular catheters for sample collection. Rats were food deprived overnight (by removing food pellets from the cage) for approximately 16 hours with ad libitum access to water. Canulae were flushed with saline to remove heparin and to clear the catheter line 30 minutes prior to the first (basal) sample collection. Basal samples were collected in a staggered dose manner (e.g. vehicle, high dose, low dose, low dose, high dose, and vehicle). Rats were injected per oral (PO), 2 mL/kg with 5% HPBCD (Hydroxypropyl-β-cyclodextrin) or with drug in 5% HPBCD. Blood (500-700 μl) was drawn via catheter at 10, 20, 40, 60, 120, and 240 minutes post dosing, and saline (about 200 μl) was infused into the catheter to ensure patency. […]
# GPR81 [3] = molecular target: T1, GPR81; assay: GPR81 [35S]GTPγS binding assay; assay type: biochemical; conditions: membranes of CHO-K1 cells stably transfected with GPR81
# Protocol: Compounds were screened for agonism of GPR81 (e.g. human GPR81) using a GTPγS binding assay and CHO-K1 cells stably transfected with GPR81.
# GPR81 stably transfected CHO-K1 cells were grown in F-12 Kaighn's Modified Cell Culture Medium with 10% FBS, 2 mM L-glutamine, 1 mM sodium pyruvate and 400 μg/ml G418. For 15 cm^2 plates, cells were rinsed with 5 mL cold PBS and aspirated. Cold membrane scrape buffer (20 mM HEPES, 10 mM EDTA, pH 7.4) was added and cells were scraped off the plate and transferred to a 50 mL centrifuge tube. Cells were spun at 20,000 rpm for 17 minutes at 4° C. The supernatant was aspirated and the pellet was re-suspended in cold membrane wash buffer (30 mL, 20 mM HEPES, 0.1 mM EDTA, pH 7.4). Cells were spun at 20,000 rpm for 17 minutes at 4° C. The supernatant was aspirated away from the membrane pellet. The pellet may be frozen at −80° C. for later use or may be used immediately.
# The membrane pellet was thawed (if frozen) on ice and homogenized briefly until in suspension using a polytron mixer (POLYTRON PT3100, probe PT-DA 3007/2 at setting of 7000 rpm). The membrane protein concentration was determined using a Bradford assay. The membrane protein was diluted to a protein concentration of 0.20 mg/mL in binding buffer (20 mM HEPES, pH 7.4, 100 mM NaCl, 10 mM MgCl2) for a final assay concentration of 5 μg/well. Compound plates to be screened were thawed (daughter plates with 5 μL compound@2 mM in 100% DMSO). The 2 mM compounds were diluted 1:50 with 245 μL GDP buffer (binding buffer plus GDP, Sigma-Aldrich Catalog #87127, ranging from 0.4 to 40 μM, made fresh before assay) to 40 μM in 2% DMSO. Compounds in GDP buffer (25 were added per well of a Scintistrip plate (Wallac Catalog #1450-501) and then 50 μL of membrane preparation (0.4 mg protein/mL) was added to each well. The plates were then covered with foil and incubated for 5-10 minutes at room temperature. Subsequently, 25 μL of diluted [^35S]GTPγS (Amersham Biosciences Catalog #SJ1320, about 2000 Ci/mmol (made by adding 5 μL [^35S]GTPγS stock into 10 ml binding buffer) was added to the wells. The plates were covered with foil and incubated on a shaker (Lab-Line model #1314, at setting of 4) for 60 minutes at room temperature. The assay was stopped by sealing the plates with plate covers and spinning the plates at 4000 rpm for 15 minutes at 22° C. The supernatant of each well was apirated using an eight-channel manifold and the plate was read in a Wallac Microbeta counter 1450 set up to detect ^35S.
# T1 sequence (Q9BXC0 whole entry): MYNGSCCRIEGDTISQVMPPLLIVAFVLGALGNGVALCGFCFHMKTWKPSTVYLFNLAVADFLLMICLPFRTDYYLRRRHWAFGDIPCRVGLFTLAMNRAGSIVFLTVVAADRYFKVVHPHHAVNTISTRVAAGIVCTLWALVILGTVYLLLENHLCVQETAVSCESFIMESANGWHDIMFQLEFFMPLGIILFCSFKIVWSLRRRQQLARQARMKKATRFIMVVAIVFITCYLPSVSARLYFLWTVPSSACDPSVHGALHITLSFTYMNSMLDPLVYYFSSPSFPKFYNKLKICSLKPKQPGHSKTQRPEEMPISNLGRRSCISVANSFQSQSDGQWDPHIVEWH
EC50 (GPR81 [1]) [nM],EC50 (GPR81 [3]) [nM],Compound,also measured
2330,–,"Cc1c(F)cccc1-n1c(N)nc2ccc(O)nc21 [Compound 64, 2-Amino-3-(3-Fluoro-2-methylphenyl)-3H-imidazo[4,5-b]pyridin-5-ol]",–
–,81.5,"Oc1ccc2nc(Cl)n(-c3ccccc3C3CC3)c2n1 [Compound 133, 2-Chloro-3-(2-Cyclopropylphenyl)-3H-imidazo[4,5-b]pyridin-5-ol]",–
1050,–,"Nc1nc2ccc(O)nc2n1-c1ccccc1 [Compound 9, 2-Amino-3-phenyl-3H-imidazo[4,5-b]pyridin-5-ol]",–
2760,–,"Oc1ccc2ncn(-c3cccc(Cl)c3F)c2n1 [Compound 50, 3-(3-Chloro-2-fluorophenyl)-3H-imidazo[4,5-b]pyridin-5-ol]",–

# The remaining lines, values behind:
Compound,EC50 (GPR81 [1]) [nM],EC50 (GPR81 [3]) [nM],also measured
"Oc1ccc2ncn(-c3ccccc3Cl)c2n1 [Compound 25, 3-(2-Chlorophenyl)-3H-imidazo[4,5-b]pyridin-5-ol]",–,–,inhibition of lipolysis [2]: inhibition of lipolysis; circulating free fatty acids (Male C57/B16 mice): significant decrease of circulating free fatty acids; circulating free fatty acids (Male Sprague Dawley rats): significant decrease of circulating free fatty acids
"Oc1ccc2ncn(-c3ccccc3C(F)(F)F)c2n1 [Compound 28, 3-(2-(Trifluoromethyl)phenyl)-3H-imidazo[4,5-b]pyridin-5-ol]",–,–,circulating free fatty acids (Male C57/B16 mice): significant decrease of circulating free fatty acids
"Oc1ccc2ncn(-c3ccc(Cl)cc3C(F)(F)F)c2n1 [Compound 56, 3-(4-Chloro-2-(trifluoromethyl)phenyl)-3H-imidazo[4,5-b]pyridin-5-ol]",–,1390,–
"Oc1ccc2ncn(C3CCCCCC3)c2n1 [Compound 48, 3-Cycloheptyl-3H-imidazo[4,5-b]pyridin-5-ol]",350,–,–
"Oc1ccc2ncn(C34CC5CC(CC(C5)C3)C4)c2n1 [Compound 114, 3-(Adamant-1-yl)-3H-imidazo[4,5-b]pyridin-5-ol]",–,30.3,–
"Oc1ccc2nc(Cl)n(C3CCCCC3)c2n1 [Compound 127, 2-Chloro-3-cyclohexyl-3H-imidazo[4,5-b]pyridin-5-ol]",–,75.3,–

# Reference: patent publication US8507473B2, “3H-imidazo[4,5-b]pyridin-5-ol derivatives useful in the treatment of GPR81 receptor disorders” (Arena Pharmaceuticals, Inc., priority 2008, dated 2013)
